Consider 28 molecules from patent US9115147B2, “Tricyclic derivatives and their pharmaceutical use and compositions” (Cephalon, Inc., priority 2009, dated 2015).

SMILES strings stand for the structures.

For the first test, the target named is T1, human 5-HT6 receptor (Homo sapiens, UniProt P50406).
T1 construct: host or cells: CHO-K1 cells, stably transfected; membranes prepared in house
T1 sequence (P50406 whole entry): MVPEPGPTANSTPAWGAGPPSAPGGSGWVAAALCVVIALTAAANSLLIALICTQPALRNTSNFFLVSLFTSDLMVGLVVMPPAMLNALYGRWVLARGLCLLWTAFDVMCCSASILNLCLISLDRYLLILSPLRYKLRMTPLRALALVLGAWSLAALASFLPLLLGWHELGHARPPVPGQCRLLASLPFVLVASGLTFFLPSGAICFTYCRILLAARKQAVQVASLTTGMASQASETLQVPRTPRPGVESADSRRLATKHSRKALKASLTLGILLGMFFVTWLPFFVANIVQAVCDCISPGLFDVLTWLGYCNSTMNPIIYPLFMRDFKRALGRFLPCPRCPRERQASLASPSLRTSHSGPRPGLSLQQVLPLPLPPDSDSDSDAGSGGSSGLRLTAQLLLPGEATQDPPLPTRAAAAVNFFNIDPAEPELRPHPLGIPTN
Briefly: Human 5-HT6 Receptor Binding Assay ([3H]LSD, scintillation beads). Conditions: Human 5-HT6 Ki (nM), actual data; membranes of CHO-K1 cells with recombinant human 5-HT6 receptor, 4 nM [3H]LSD. How it is done:
Human 5-HT6 Receptor Binding Assay
Membranes were prepared from CHO-K1 cells stably transfected with the human 5-HT6 receptor (Euroscreen; ES-316-C). The cells were grown in Gibco Advanced DMEM-F12 (Cat#12634010) containing 2% dialyzed FBS (Hyclone Cat#SH30079.03). The cells were harvested in phosphate buffered saline (PBS) containing 0.1 mM EDTA and pelleted by centrifugation (1000×g), the supernatant was discarded and the pellets were stored at −80° C. prior to membrane preparation. Membranes were prepared as previously described (J Bio Chem. 1992, 267 (14) 9844-51). Briefly, frozen cell pellet was resuspended in a lysis buffer containing 5 mM Tris-HCl (pH 7.5), 5 mM EDTA and 1 complete EDTA-free protease inhibitor tablet (Roche Applied Science, Indianapolis, Ind.) per 50 mL buffer, and homogenized with a tissue homogenizer. The cell lysate was then centrifuged at 40,000×g for 30 min at 4° C. to collect the membranes. The membrane pellets were washed in membrane buffer (50 mM Tris-HCl (pH 7.5), 0.6 mM EDTA, 5 mM MgCl2, 1 complete EDTA-free protease inhibitor tablet per 50 mL buffer) using a tissue homogenizer. The membranes were centrifuged at 40,000×g for 30 min at 4° C. and the pellets were resuspended in membrane buffer containing 250 mM sucrose, and protein concentration was determined using the Coomassie Plus kit (Pierce Biotechnology, Rockford, Ill.).
Membranes prepared from cells expressing recombinant human 5-HT6 receptor (h5-HT6) were resuspended in assay buffer containing 50 mM Tris HCl, (pH7.4), 4 mM CaCl2, 10 μg/mL saponin, and 0.1% (w/v) ascorbic acid. Membranes were preincubated using 1.75 μg membrane protein and 0.25 mg FlashBlue scintillation beads (PerkinElmer catalogue #FB001) per well at 4° C. for 30 min. […] Test compounds or assay controls for total and non-specific binding were diluted in DMSO as 100× solutions and serially diluted by half log concentrations on a Perkin Elmer JANUS Automated Workstation. Serotonin (10 μM final concentration) was used to determine non-specific binding in the assay. Plates were read using the Microbeta Trilux 1450 LSC and luminescence counter. Data were analyzed by nonlinear […] using the dose-response equation (variable slope) to calculate IC50 in XLfit4 (ID Business Solutions Inc.): y=(Bottom+((Top−Bottom)/(1+((IC50/x)^Hill slope))))
Ki value was then calculated according to the Cheng-Prusoff method using the equation below (Cheng and Prusoff, 1973): Ki, app=IC50/(1+([radioligand]/Kd))
Turning to `Cc1cccc([S+]([O-])c2ccc3c(c2)OCC2NCCC32)n1` (single isomer, unassigned) [Example 22, 7-[(6-methylpyridin-2-yl)sulfinyl]-1,2,3,3a,4,9b-hexahydrochromeno[3,4-b]pyrrole], the Ki came out at 51.5 nM.

The same test, now with this note: Human 5-HT6 Ki app (nM), membranes of CHO-K1 cells with recombinant human 5-HT6 receptor, 4 nM [3H]LSD, Cheng-Prusoff.
With `Cc1cccc([S+]([O-])c2ccc3c(c2)OCC2NCCC32)n1` (single isomer, unassigned) [Example 22, 7-[(6-methylpyridin-2-yl)sulfinyl]-1,2,3,3a,4,9b-hexahydrochromeno[3,4-b]pyrrole], the Ki is less than 500 nM.
Same read-out and setting: in the case of `Cc1cccc(S(=O)(=O)c2ccc3c(c2)OCC2NCCC32)n1` (single isomer, unassigned) [Example 23, 7-[(6-methylpyridin-2-yl)sulfonyl]-1,2,3,3a,4,9b-hexahydrochromeno[3,4-b]pyrrole] it was less than 500 nM.
Take `O=S(=O)(c1cncc(Br)c1)c1ccc2c(c1)OCC1NCCC21` (single isomer, unassigned) [Example 28, 7-[(5-bromopyridin-3-yl)sulfonyl]-1,2,3,3a,4,9b-hexahydrochromeno[3,4-b]pyrrole]: the Ki was less than 500 nM.
As to `O=S(=O)(c1cncc(F)c1)c1ccc2c(c1)OCC1NCCC21` (single isomer, unassigned) [Example 29, 7-[(5-fluoropyridin-3-yl)sulfonyl]-1,2,3,3a,4,9b-hexahydrochromeno[3,4-b]pyrrole], the Ki is less than 500 nM.
Same read-out and setting: in the case of `O=S(=O)(c1cncc(Cl)c1)c1ccc2c(c1)OCC1NCCC21` (single isomer, unassigned) [Example 30, 7-[(5-chloropyridin-3-yl)sulfonyl]-1,2,3,3a,4,9b-hexahydrochromeno[3,4-b]pyrrole] it was less than 500 nM.
On to `O=S(=O)(c1cncc(F)c1)c1ccc2c(c1)OCC1NCCC21` (single isomer, unassigned) [Example 32, 7-[(5-fluoropyridin-3-yl)sulfonyl]-1,2,3,3a,4,9b-hexahydrochromeno[3,4-b]pyrrole], for which the Ki was more than 1000 nM.
Same read-out and setting: in the case of `COc1cncc(S(=O)(=O)c2ccc3c(c2)OCC2NCCC32)c1` (single isomer, unassigned) [Example 33, 7-[(5-methoxypyridin-3-yl)sulfonyl]-1,2,3,3a,4,9b-hexahydrochromeno[3,4-b]pyrrole] it was less than 500 nM; in that of `COc1cncc(S(=O)(=O)c2ccc3c(c2)OCC2NCCC32)c1` (single isomer, unassigned) [Example 35, 7-[(5-methoxypyridin-3-yl)sulfonyl]-1,2,3,3a,4,9b-hexahydrochromeno[3,4-b]pyrrole], more than 1000 nM.

Still in this test, the particulars now being: membranes of CHO-K1 cells with recombinant human 5-HT6 receptor, 4 nM [3H]LSD, Cheng-Prusoff; read-out: Human 5-HT6 Ki app.
As to `CC(C)Oc1cc(F)cc(S(=O)(=O)c2ccc3c(c2)OCC2NCCC32)c1` (single isomer, unassigned) [Example 27, 7-{[3-fluoro-5-(propan-2-yloxy)phenyl]sulfonyl}-1,2,3,3a,4,9b-hexahydrochromeno[3,4-b]pyrrole], the Ki was less than 500 nM.
Still for that read-out and setting: next, `COc1cc(F)cc(S(=O)(=O)c2ccc3c(c2)OCC2NCCC32)c1` (single isomer, unassigned) [Example 36, 7-[(3-fluoro-5-methoxyphenyl)sulfonyl]-1,2,3,3a,4,9b-hexahydrochromeno[3,4-b]pyrrole]: less than 500 nM.
The same measure, in the same setting: next, `O=S(=O)(c1ccc2c(c1)OCC1NCCC21)c1cccc2c1CCO2` (single isomer, unassigned) [Example 37, 7-(2,3-dihydro-1-benzofuran-4-ylsulfonyl)-1,2,3,3a,4,9b-hexahydrochromeno[3,4-b]pyrrole]: less than 500 nM.
On the same count and under the same terms, next, `CN(C)C(=O)c1cccc(S(=O)(=O)c2ccc3c(c2)OC[C@H]2NCC[C@@H]32)c1` (single isomer, unassigned) [Example 38]: less than 500 nM; `CC(C)COc1cc(F)cc(S(=O)(=O)c2ccc3c(c2)OCC2NCCC32)c1` (single isomer, unassigned) [Example 39, 7-{[3-fluoro-5-(2-methylpropoxy)phenyl]sulfonyl}-1,2,3,3a,4,9b-hexahydrochromeno[3,4-b]pyrrole]: less than 500 nM; `CCOc1cc(F)cc(S(=O)(=O)c2ccc3c(c2)OCC2NCCC32)c1` (single isomer, unassigned) [Example 40, 7-[(3-ethoxy-5-fluorophenyl)sulfonyl]-1,2,3,3a,4,9b-hexahydrochromeno[3,4-b]pyrrole]: less than 500 nM.
In the case of `O=S(=O)(c1ccc2c(c1)OCC1NCCC21)c1cccc(F)c1F` (single isomer, unassigned) [Example 41, 7-[(2,3-difluorophenyl)sulfonyl]-1,2,3,3a,4,9b-hexahydrochromeno[3,4-b]pyrrole], the Ki is less than 500 nM.
With `O=S(=O)(c1ccc2c(c1)OCC1NCCC21)c1cc(F)cc(F)c1F` (single isomer, unassigned) [Example 42, 7-[(2,3,5-trifluorophenyl)sulfonyl]-1,2,3,3a,4,9b-hexahydrochromeno[3,4-b]pyrrole], the Ki is less than 500 nM.
The same measure, in the same setting: in the case of `CC(C)Oc1cc(F)cc(S(=O)(=O)c2ccc3c(c2)OCC2NCCC32)c1` (single isomer, unassigned) [Example 43, 7-{[3-fluoro-5-(propan-2-yloxy)phenyl]sulfonyl}-1,2,3,3a,4,9b-hexahydrochromeno[3,4-b]pyrrole] it was less than 500 nM; in that of `COc1cc(F)cc(S(=O)(=O)c2ccc3c(c2)OCC2NCCC32)c1` (single isomer, unassigned) [Example 44, 7-[(3-fluoro-5-methoxyphenyl)sulfonyl]-1,2,3,3a,4,9b-hexahydrochromeno[3,4-b]pyrrole], less than 500 nM; in that of `O=S(=O)(c1ccc2c(c1)OCC1NCCC21)c1cccc2c1CCO2` (single isomer, unassigned) [Example 45, 7-(2,3-dihydro-1-benzofuran-4-ylsulfonyl)-1,2,3,3a,4,9b-hexahydrochromeno[3,4-b]pyrrole], less than 500 nM.
The same measure, in the same setting: next, `CN(C)C(=O)c1cccc(S(=O)(=O)c2ccc3c(c2)OC[C@@H]2NCC[C@H]32)c1` (single isomer, unassigned) [Example 46]: less than 500 nM; `CC(C)COc1cc(F)cc(S(=O)(=O)c2ccc3c(c2)OCC2NCCC32)c1` (single isomer, unassigned) [Example 47, 7-{[3-fluoro-5-(2-methylpropoxy)phenyl]sulfonyl}-1,2,3,3a,4,9b-hexahydrochromeno[3,4-b]pyrrole]: less than 500 nM.
Same read-out and setting: in the case of `CCOc1cc(F)cc(S(=O)(=O)c2ccc3c(c2)OCC2NCCC32)c1` (single isomer, unassigned) [Example 48, 7-[(3-ethoxy-5-fluorophenyl)sulfonyl]-1,2,3,3a,4,9b-hexahydrochromeno[3,4-b]pyrrole] it was less than 500 nM.
With `O=S(=O)(c1ccc2c(c1)OCC1NCCC21)c1cccc(F)c1F` (single isomer, unassigned) [Example 49, 7-[(2,3-difluorophenyl)sulfonyl]-1,2,3,3a,4,9b-hexahydrochromeno[3,4-b]pyrrole], the Ki was less than 500 nM.
Same read-out and setting: next, `O=S(=O)(c1ccc2c(c1)OCC1NCCC21)c1cc(F)cc(F)c1F` (single isomer, unassigned) [Example 50, 7-[(2,3,5-trifluorophenyl)sulfonyl]-1,2,3,3a,4,9b-hexahydrochromeno[3,4-b]pyrrole]: less than 500 nM; `O=S(=O)(c1cncc(C(F)(F)F)c1)c1ccc2c(c1)OCC1NCCC21` (single isomer, unassigned) [Example 51, 7-{[5-(trifluoromethyl)pyridin-3-yl]sulfonyl}-1,2,3,3a,4,9b-hexahydrochromeno[3,4-b]pyrrole]: less than 500 nM.

Staying with this test, now noted: read-out: Human 5-HT6 Ki app; membranes of CHO-K1 cells with recombinant human 5-HT6 receptor, 4 nM [3H]LSD, Cheng-Prusoff.
For `Cc1cccc(S(=O)(=O)c2ccc3c(c2)OCC2NCCC32)n1` (single isomer, unassigned) [Example 24, 7-[(6-methylpyridin-2-yl)sulfonyl]-1,2,3,3a,4,9b-hexahydrochromeno[3,4-b]pyrrole], the Ki is less than 500 nM.
Still for that read-out and setting: in the case of `O=S(=O)(c1cncc(Br)c1)c1ccc2c(c1)OCC1NCCC21` (single isomer, unassigned) [Example 31, 7-[(5-bromopyridin-3-yl)sulfonyl]-1,2,3,3a,4,9b-hexahydrochromeno[3,4-b]pyrrole] it was less than 500 nM; in that of `O=S(=O)(c1cncc(Cl)c1)c1ccc2c(c1)OCC1NCCC21` (single isomer, unassigned) [Example 34, 7-[(5-chloropyridin-3-yl)sulfonyl]-1,2,3,3a,4,9b-hexahydrochromeno[3,4-b]pyrrole], less than 500 nM.
